# Assay: HPLC check for drug degradation after thermal processing of the electrode coating
# Assay type: physicochemical
# Details: coating heated to solid-state phase change (hot air tool), dissolved from electrode in solvent, compared to control solution
# Excerpt: Prior attempts at heating a drug to form a more durable drug coating on an electrode surface have been less successful because the drug may degrade during the heating process due to overheating. One advantage of the present invention is that the controlled heating process, using a focused, direct heat source, achieves a change in solid state and micro-crack healing forming a conformable crystalline coating with a decrease in the defect density, without degrading the drug. […] Electrodes coated with beclomethasone dipropionate, according to the thermal processing methods described above and shown in FIG. 3, have been soaked in a solvent to dissolve the drug coating from the electrode surface. The resulting test solution was analyzed using HPLC and compared to HPLC results from a control sample of beclomethasone dipropionate in solution. Chromatograms of the test solution samples were identical to those of the control samples with regards to retention time of the major peak.
structure (smiles),measurement,value
CCC(=O)OCC(=O)[C@@]1(OC(=O)CC)[C@@H](C)C[C@H]2[C@@H]3CCC4=CC(=O)C=C[C@]4(C)[C@@]3(Cl)[C@@H](O)C[C@@]21C [beclomethasone dipropionate anhydrous],degradation products by HPLC after thermal processing,no peaks associated with degradation products were observed

# — patent US7282213B2, “Method for applying a drug coating to a medical device” (Medtronic, Inc., priority 2002, dated 2007)
